System: M1-polarized Mø (classically activated BMDMs)
Test: Cell Titer Blue (resazurin-based) cell viability assay, classically activated (M1) BMDMs
Set-up: species or system mouse
Conditions: 1 h pre-treatment, then 100 ng/ml NRG4 and 100 ng/ml LPS
Procedure: (FIG. 8A) Classically activated (M1) or alternatively activated (M2) BMDMs were treated with NRG4 (100 ng/ml) for 48 hours and analyzed by resazurin-based cell titer assay to assess cell numbers compared to control. (FIG. 8B) Classically activated BMDMs pre-incubated for 30 minutes with or without 2 μg/ml ErbB4 neutralizing antibody (E4BA), and treated with or without NRG4 (100 ng/ml) for 48 hours, were stained for cleaved caspase-3. […] (FIG. 8C) Classically activated BMDMs treated with NRG4 (100 ng/ml) for 48 hours were stained for annexin V and propidium iodide (PI), and analyzed by flow cytometry to determine apoptotic cells. n=3-6 independent experiments for each panel. Error bars represent SEM. *, p<0.05; **, p<0.01.
(FIG. 9B) Classically activated BMDMs were pre-treated for 1 hour with metalloprotease inhibitor (GM6001, 10 γ-secretase inhibitor (DAPT, 10 or ADAM17 inhibitor (GW280264X, 3 μM) followed by 100 ng/ml NRG4 and 100 ng/ml LPS. Percent cell viability was analyzed by rezasurin-based cell titer assay. Error bars represent SEM. ***, p<0.001. (FIG. 9C) Immunofluorescence analysis of ErbB4 localization to the mitochondria of classically activated BMDMs treated with or without NRG4 (100 ng/ml) for 48 hours. Arrows point to representative cells with ErbB4/mitochondrial overlap. n=4 independent experiments.
IFNγ/LPS-treated Mø were exposed to NRG4 (100 ng/ml)+/−ErbB4 blocking antibody (E4BA; 2 μg/ml) for 48 h and counted by Cell Titer Blue assay (Promega). n=4. *, p<0.01.
For BMDMs, adherent cells were washed at 3 days and re-fed with M-CSF containing media until experimentation at day 7-8. For M1 polarization, cells were pre-treated with 100 U/ml IFNγ for 16 hours, then stimulated with 100 ng/ml LPS.
BMDMs were plated in 96 well plates at 40,000 cells per well. Cells were washed and plated in DMEM with 10% heat-inactivated FBS, 100 U/ml penicillin and streptomycin, and given 100 U/ml IFNγ overnight. […] Relative cell numbers were determined by Cell Titer Blue (resazurin-based assay) following manufacturer's instructions (Promega, G8081). […]

Molecule	Effect on NRG4-induced cell death (percent cell viability) (inhibitor 10 μM)	Effect on NRG4-induced cell death (percent cell viability) (inhibitor 3 μM)
C[C@H](NC(=O)Cc1cc(F)cc(F)c1)C(=O)N[C@H](C(=O)OC(C)(C)C)c1ccccc1 [DAPT]	protected against the NRG4-induced cell death	–
CNC(=O)[C@H](Cc1c[nH]c2ccccc12)NC(=O)[C@@H](CC(=O)NO)CC(C)C [GM6001]	protected against the NRG4-induced cell death	–
GW280264X	–	protected against the NRG4-induced cell death

— US11524055B2, “Methods for treating diseases mediated by ERBB4-positive pro-inflammatory macrophages” (Children's Hospital Los Angeles, priority 2015, dated 2022)
